Assay results from ChEMBL document CHEMBL1201861, “Genomics of Drug Sensitity in Cancer screening data, Wellcome Trust Sanger Institute”.

These compounds were tested on REH (assay: cells). Settings: Homo sapiens, REH.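 Further: growth inhibition of REH cells determined with a cell viability read-out.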
Format: functional, cell-based, Homo sapiens
Description: SANGER: Inhibition of human REH cell growth in a cell viability assay.
In the case of `OC[C@H](Cc1ccccc1)Nc1nc(Oc2ccc3c(c2)CCC3)nc2c1ncn2Cc1ccc(-c2ccccc2)cc1`, the IC50 is reported as > 10.2 µM.

What follows are compounds tested on NCI-H1694 (assay: cells). Settings: Homo sapiens, NCI-H1694.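 Further: cell viability assay measuring inhibition of growth in human NCI-H1694 cells.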
Format: functional, cell-based, Homo sapiens
Description: SANGER: Inhibition of human NCI-H1694 cell growth in a cell viability assay.
For `OC[C@H](Cc1ccccc1)Nc1nc(Oc2ccc3c(c2)CCC3)nc2c1ncn2Cc1ccc(-c2ccccc2)cc1`, the IC50 was > 10.2 µM.

The compounds below were run on LK-2 (assay: cells). Settings: Homo sapiens.
Format: functional, cell-based
Description: SANGER: Inhibition of human LK-2 cell growth in a cell viability assay.
With `OC[C@H](Cc1ccccc1)Nc1nc(Oc2ccc3c(c2)CCC3)nc2c1ncn2Cc1ccc(-c2ccccc2)cc1` the IC50 was > 10.2 µM.

The compounds below were run on BC1 cell line (assay: SANGER: Inhibition of human BC-1 cell growth in a cell viability assay.). Settings: Homo sapiens, BC1.
Format: functional, cell-based
In the case of `OC[C@H](Cc1ccccc1)Nc1nc(Oc2ccc3c(c2)CCC3)nc2c1ncn2Cc1ccc(-c2ccccc2)cc1`, the IC50 is reported as > 10.2 µM.

What follows are compounds tested on NCI-H2228 (assay: cells). Settings: Homo sapiens.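 Further: growth inhibition of human NCI-H2228 cells, read out by a cell viability assay.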
Format: functional, cell-based
Description: SANGER: Inhibition of human NCI-H2228 cell growth in a cell viability assay.
In the case of `OC[C@H](Cc1ccccc1)Nc1nc(Oc2ccc3c(c2)CCC3)nc2c1ncn2Cc1ccc(-c2ccccc2)cc1`, the IC50 is reported as > 10.2 µM.

What follows are compounds tested on HCC1806 (assay: cells). Settings: Homo sapiens.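 Further: growth inhibition of the cancer cell line, determined with a cell viability assay.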
Format: functional, cell-based
Description: SANGER: Inhibition of human HCC1806 cell growth in a cell viability assay.
`OC[C@H](Cc1ccccc1)Nc1nc(Oc2ccc3c(c2)CCC3)nc2c1ncn2Cc1ccc(-c2ccccc2)cc1` was tested, and the IC50 was > 10.2 µM.

The compounds below were run on PC-3 (assay: cells). Settings: Homo sapiens.
Format: functional, cell-based
Description: SANGER: Inhibition of human PC-3 cell growth in a cell viability assay.
`OC[C@H](Cc1ccccc1)Nc1nc(Oc2ccc3c(c2)CCC3)nc2c1ncn2Cc1ccc(-c2ccccc2)cc1` was tested, and the IC50 was > 10.2 µM.

These compounds were tested on JIYOYE (assay: cells). Settings: Homo sapiens, JIYOYE.
Format: functional, cell-based, Homo sapiens
Description: SANGER: Inhibition of human JiyoyeP-2003 cell growth in a cell viability assay.
For `OC[C@H](Cc1ccccc1)Nc1nc(Oc2ccc3c(c2)CCC3)nc2c1ncn2Cc1ccc(-c2ccccc2)cc1`, the IC50 was > 10.2 µM.

The compounds below were run on KYSE-70 cell line (assay: cells). Settings: Homo sapiens.
Format: functional, cell-based
Description: SANGER: Inhibition of human KYSE-70 cell growth in a cell viability assay.
In the case of `OC[C@H](Cc1ccccc1)Nc1nc(Oc2ccc3c(c2)CCC3)nc2c1ncn2Cc1ccc(-c2ccccc2)cc1`, the IC50 is reported as > 10.2 µM.

Each compound was assayed on NCI-H2052 (assay: cells). Settings: Homo sapiens.
Format: functional, cell-based
Description: SANGER: Inhibition of human NCI-H2052 cell growth in a cell viability assay.
`OC[C@H](Cc1ccccc1)Nc1nc(Oc2ccc3c(c2)CCC3)nc2c1ncn2Cc1ccc(-c2ccccc2)cc1` was tested, and the IC50 was > 10.2 µM.

What follows are compounds tested on RPMI-6666 (assay: cells). Settings: Homo sapiens, RPMI-6666.
Format: functional, cell-based, Homo sapiens
Description: SANGER: Inhibition of human RPMI-6666 cell growth in a cell viability assay.
For `OC[C@H](Cc1ccccc1)Nc1nc(Oc2ccc3c(c2)CCC3)nc2c1ncn2Cc1ccc(-c2ccccc2)cc1`, the IC50 was > 10.2 µM.

Each compound was assayed on NB1 (assay: cells). Settings: Homo sapiens, NB1.
Format: functional, cell-based, Homo sapiens
Description: SANGER: Inhibition of human NB1 cell growth in a cell viability assay.
For `OC[C@H](Cc1ccccc1)Nc1nc(Oc2ccc3c(c2)CCC3)nc2c1ncn2Cc1ccc(-c2ccccc2)cc1`, the IC50 was 9.3 µM.

These compounds were tested on HOS (assay: cells). Settings: Homo sapiens.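 Further: growth inhibition of human HOS cells, read out with a cell viability assay.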
Format: functional, cell-based
Description: SANGER: Inhibition of human HOS cell growth in a cell viability assay.
Compound `OC[C@H](Cc1ccccc1)Nc1nc(Oc2ccc3c(c2)CCC3)nc2c1ncn2Cc1ccc(-c2ccccc2)cc1` has an IC50 of 3.08 µM.

The compounds below were run on NCI-H748 (assay: cells). Settings: Homo sapiens, NCI-H748.
Format: functional, cell-based, Homo sapiens
Description: SANGER: Inhibition of human NCI-H748 cell growth in a cell viability assay.
`OC[C@H](Cc1ccccc1)Nc1nc(Oc2ccc3c(c2)CCC3)nc2c1ncn2Cc1ccc(-c2ccccc2)cc1` was tested, and the IC50 was > 10.2 µM.

Each compound was assayed on T84 (assay: cells). Settings: Homo sapiens.
Format: functional, cell-based
Description: SANGER: Inhibition of human T84 cell growth in a cell viability assay.
With `OC[C@H](Cc1ccccc1)Nc1nc(Oc2ccc3c(c2)CCC3)nc2c1ncn2Cc1ccc(-c2ccccc2)cc1` the IC50 was > 10.2 µM.

Each compound was assayed on HEC-1 (assay: cells). Settings: Homo sapiens.
Format: functional, cell-based
Description: SANGER: Inhibition of human HEC-1 cell growth in a cell viability assay.
`OC[C@H](Cc1ccccc1)Nc1nc(Oc2ccc3c(c2)CCC3)nc2c1ncn2Cc1ccc(-c2ccccc2)cc1` was tested, and the IC50 was > 10.2 µM.

Each compound was assayed on CAKI-1 (assay: cells). Settings: Homo sapiens.
Format: functional, cell-based
Description: SANGER: Inhibition of human CAKI-1 cell growth in a cell viability assay.
In the case of `OC[C@H](Cc1ccccc1)Nc1nc(Oc2ccc3c(c2)CCC3)nc2c1ncn2Cc1ccc(-c2ccccc2)cc1`, the IC50 is reported as > 10.2 µM.

Each compound was assayed on BC-3 (assay: cells). Settings: Homo sapiens, BC-3.
Format: functional, cell-based, Homo sapiens
Description: SANGER: Inhibition of human BC-3 cell growth in a cell viability assay.
`OC[C@H](Cc1ccccc1)Nc1nc(Oc2ccc3c(c2)CCC3)nc2c1ncn2Cc1ccc(-c2ccccc2)cc1` showed an IC50 of 6.66 µM.

What follows are compounds tested on MDA-MB-453 (assay: cells). Settings: Homo sapiens.
Format: functional, cell-based
Description: SANGER: Inhibition of human MDA-MB-453 cell growth in a cell viability assay.
For `OC[C@H](Cc1ccccc1)Nc1nc(Oc2ccc3c(c2)CCC3)nc2c1ncn2Cc1ccc(-c2ccccc2)cc1`, the IC50 was > 10.2 µM.

These compounds were tested on CaR-1 (assay: cells). Settings: Homo sapiens.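 Further: growth inhibition of human CaR-1 cancer cells, read out with a cell viability assay.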
Format: functional, cell-based
Description: SANGER: Inhibition of human CaR-1 cell growth in a cell viability assay.
With `OC[C@H](Cc1ccccc1)Nc1nc(Oc2ccc3c(c2)CCC3)nc2c1ncn2Cc1ccc(-c2ccccc2)cc1` the IC50 was > 10.2 µM.

What follows are compounds tested on KU-19-19 (assay: cells). Settings: Homo sapiens.
Format: functional, cell-based
Description: SANGER: Inhibition of human KU-19-19 cell growth in a cell viability assay.
In the case of `OC[C@H](Cc1ccccc1)Nc1nc(Oc2ccc3c(c2)CCC3)nc2c1ncn2Cc1ccc(-c2ccccc2)cc1`, the IC50 is reported as > 10.2 µM.

Each compound was assayed on ACHN (assay: cells). Settings: Homo sapiens.
Format: functional, cell-based
Description: SANGER: Inhibition of human ACHN cell growth in a cell viability assay.
In the case of `OC[C@H](Cc1ccccc1)Nc1nc(Oc2ccc3c(c2)CCC3)nc2c1ncn2Cc1ccc(-c2ccccc2)cc1`, the IC50 is reported as > 10.2 µM.

What follows are compounds tested on HT-3 (assay: cells). Settings: Homo sapiens.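 Further: growth inhibition measured with a cell viability readout.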
Format: functional, cell-based
Description: SANGER: Inhibition of human HT-3 cell growth in a cell viability assay.
`OC[C@H](Cc1ccccc1)Nc1nc(Oc2ccc3c(c2)CCC3)nc2c1ncn2Cc1ccc(-c2ccccc2)cc1` was tested, and the IC50 was > 10.2 µM.

These compounds were tested on Ca9-22 (assay: cells). Settings: Homo sapiens.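 Further: growth inhibition of Ca9-22 cells, read out with a cell viability assay.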
Format: functional, cell-based
Description: SANGER: Inhibition of human Ca9-22 cell growth in a cell viability assay.
For `OC[C@H](Cc1ccccc1)Nc1nc(Oc2ccc3c(c2)CCC3)nc2c1ncn2Cc1ccc(-c2ccccc2)cc1`, the IC50 was > 10.2 µM.

Each compound was assayed on SK-MES-1 (assay: cells). Settings: Homo sapiens.
Format: functional, cell-based
Description: SANGER: Inhibition of human SK-MES-1 cell growth in a cell viability assay.
For `OC[C@H](Cc1ccccc1)Nc1nc(Oc2ccc3c(c2)CCC3)nc2c1ncn2Cc1ccc(-c2ccccc2)cc1`, the IC50 was 8.44 µM.

Each compound was assayed on Capan-2 (assay: cells). Settings: Homo sapiens.
Format: functional, cell-based
Description: SANGER: Inhibition of human Capan-2 cell growth in a cell viability assay.
In the case of `OC[C@H](Cc1ccccc1)Nc1nc(Oc2ccc3c(c2)CCC3)nc2c1ncn2Cc1ccc(-c2ccccc2)cc1`, the IC50 is reported as > 10.2 µM.

The compounds below were run on Daoy (assay: cells). Settings: Homo sapiens.
Format: functional, cell-based
Description: SANGER: Inhibition of human Daoy cell growth in a cell viability assay.
`OC[C@H](Cc1ccccc1)Nc1nc(Oc2ccc3c(c2)CCC3)nc2c1ncn2Cc1ccc(-c2ccccc2)cc1` showed an IC50 of 2.93 µM.
